# Data reported in patent publication US12653191B2, “Active compound combinations” (Bayer Aktiengesellschaft, priority 2020, dated 2026).
# Several values for one entry are separate records, joined by “and”; a condition that tells them apart may be missing. Equal entries are not always repeated. Where two headings read alike, the source gives them in different places.
# Experiments:
# Assay type in all cases: cell-based
# [1] = test system: Cordana musae; assay: in vitro-Test with fungal microorganisms, Method B (tables E9-E16); details: for Efficacy %: single substance
# Outline: (§1)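 Cpd in MeOH + alkylaryl-polyglycol-ether, solvent evaporated; liquid medium + fungal spores/mycelium added; OD600 read; 3–7 d, 20° C., 85% RH; growth inhibition by photometry, % efficacy vs untreated ctrl.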
# [2] = test system: Alternaria alternata; assay: in vitro-Test with fungal microorganisms, Method B (tables A13-A22)
# Outline: as §1
# [3] = test system: Parastagonospora nodorum; assay: in vitro-Test with fungal microorganisms, Method B (tables H5-H8)
# Outline: as §1
# [4] = test system: Diaporthe citri; assay: in vitro-Test with fungal microorganisms, Method B (tables F12-F15)
# Outline: as §1
# [5] = test system: Botrytis cinerea; assay: in vitro-Test with fungal microorganisms, Method B (tables B15-B18)
# Outline: as §1
# [6] = test system: Fusarium culmorum; assay: in vitro-Test with fungal microorganisms, Method B (tables G5-G15)
# Outline: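 Efficacy scale: 0% means growth equal to the untreated control, 100% means none detected. Compounds are dried from methanol with emulsifier before adding inoculated growth medium; incubation at 20° C., 85% relative humidity for 3 to 7 days precedes photometric inhibition readout.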
# [7] = test system: Cercospora beticola; assay: in vitro-Test with fungal microorganisms, Method B (tables C11-C20)
# Outline: as §1
# [8] = test system: Colletotrichum coccodes; assay: in vitro-Test with fungal microorganisms, Method B (tables J1-J11)
# Outline: as §1
# [9] = test system: Ustilago segetum var. avenae; assay: in vitro-Test with fungal microorganisms, Method B (tables I6-I11)
# Outline: as §1
# [10] = test system: Fusarium culmorum; assay: in vitro-Test with fungal microorganisms, Method A (tables G1-G4); details: alone
# Outline: (§2)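 Test compound in methanol plus alkylaryl-polyglycol-ether emulsifier was dried into wells, then liquid potato dextrose medium containing spores or mycelium of the fungus was added. Plates were incubated at 20° C and 85% relative humidity; growth read at 620 nm after 3-5 days, efficacy relative to untreated control.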
# [11] = test system: Diaporthe citri; assay: in vitro-Test with fungal microorganisms, Method A (tables F1-F11); details: Diaporthe citri, read-out: Efficacy
# Outline: as §2
# [12] = test system: Ustilago segetum var. avenae; assay: in vitro-Test with fungal microorganisms, Method A (tables I1-I5); details: alone, read-out: Efficacy %
# Outline: as §2
# [13] = test system: Colletotrichum lindemuthianum; assay: in vitro-Test with fungal microorganisms, Method A (tables D1-D8)
# Outline: as §2
# [14] = test system: Botrytis cinerea; assay: in vitro-Test with fungal microorganisms, Method A (tables B1-B14); details: Botrytis cinerea
# Outline: as §2
# [15] = test system: Cercospora beticola; assay: in vitro-Test with fungal microorganisms, Method A (tables C1-C10); details: Cercospora beticola, read-out: Efficacy %
# Outline: as §2
# [16] = test system: Cordana musae; assay: in vitro-Test with fungal microorganisms, Method A (tables E1-E8); details: Neocordana musae, single substance, read-out: Efficacy %
# Outline: as §2
# [17] = single active compound, 0.2 ppm
smiles,measurement,setting,value
"Cc1nn(C)c(F)c1C(=O)Nc1ccccc1C(C)CC(C)C (stereo not drawn) [(2.017) penflufen, penflufen]",Efficacy,"[1]; single active, 0.04 ppm",0%
same,Efficacy,"[1]; single active, 0.2 ppm",0%
same,Efficacy,"[1]; single active, 1 ppm",0%
same,Efficacy,[2]; 0.2 ppm,22%
same,Efficacy,[2]; 5 ppm,72%
same,Efficacy,[3]; 0.04 ppm,0%
same,Efficacy,[3]; 0.2 ppm,5%
same,Efficacy,"[4]; Table F15, 0.04 ppm alone",0%
same,Efficacy,"[4]; Table F15, 0.2 ppm alone",2%
same,Efficacy,"[4]; Table F15, 1 ppm alone",0%
same,Efficacy,"[4]; Table F15, 5 ppm alone",3%
same,Efficacy %,[5]; 0.04 ppm alone,0%
same,Efficacy %,[5]; 5 ppm alone,70%
same,Efficacy,[6]; 0.04 ppm alone,4%
same,Efficacy,[6]; [17],10% and 2%
same,Efficacy,"[6]; single active compound, 1 ppm",11%
same,Efficacy,"[6]; single active compound, 5 ppm",11% and 8%
same,Efficacy %,"[7]; single compound, 1 ppm",0%
same,Efficacy %,[8]; single active compound at 1 ppm,0%
same,Efficacy %,[8]; single active compound at 5 ppm,27%
"Cc1cccc(-n2nnn(C)c2=O)c1COc1ccn(-c2ccc(Cl)cc2)n1 [(3.030) metyltetraprole, metyltetraprole]",Efficacy,"[1]; single active, 0.008 ppm",0%
same,Efficacy,"[1]; single active, 0.04 ppm",0%
same,Efficacy,"[1]; single active, 0.2 ppm",19%
same,Efficacy,"[1]; single active, 1 ppm",70%
same,Efficacy,[2]; 0.008 ppm,0%
same,Efficacy,[2]; 1 ppm,87%
same,Efficacy,[3]; 0.04 ppm,38%
same,Efficacy,[3]; 1 ppm,84%
same,Efficacy,"[4]; Table F14, 0.2 ppm alone",86%
same,Efficacy %,[5]; 0.008 ppm alone,7%
same,Efficacy %,[5]; 0.04 ppm alone,11%
same,Efficacy %,[5]; 0.2 ppm alone,7%
same,Efficacy %,[5]; 1 ppm alone,33%
same,Efficacy,[6]; 0.2 ppm alone,13%
same,Efficacy,"[6]; single active compound, 0.008 ppm",7% and 0%
same,Efficacy,"[6]; single active compound, 0.04 ppm",8% and 0%
same,Efficacy,[6]; [17],6% and 5%
same,Efficacy,"[6]; single active compound, 1 ppm",8% and 2%
same,Efficacy %,"[7]; single compound, 0.04 ppm",100%
same,Efficacy %,"[7]; single compound, 0.2 ppm",100%
same,Efficacy %,[8]; single active compound at 0.04 ppm,0%
same,Efficacy %,[8]; single active compound at 0.2 ppm,1%
same,Efficacy %,[9]; 0.2 ppm,0%
"N#Cc1sc2c(=O)c3ccccc3c(=O)c=2sc1C#N [(5.010) dithianon, dithianon]",inhibition of growth at 2 ppm,"[1]; Neocordana musae, single active, 2 ppm, read-out: Efficacy",95%
same,Efficacy %,[1]; 0.08 ppm,0%
same,Efficacy %,[1]; 10 ppm,100%
same,Efficacy,[10]; 20.0 ppm,100%
same,inhibition of growth at 4 ppm,"[10]; Fusarium culmorum, 4.0 ppm, read-out: Efficacy",0%
same,inhibition of growth at 0.8 ppm,"[11]; Table F10, 0.8 ppm alone",9%
same,inhibition of growth at 4 ppm,"[11]; Table F10, 4.0 ppm alone",99%
same,inhibition of growth at 20 ppm,"[11]; Table F10, 20.0 ppm alone",98%
same,inhibition of growth at 0.8 ppm,"[11]; applied alone, 0.8 ppm",17%
same,inhibition of growth at 20 ppm,"[11]; applied alone, 20.0 ppm",98%
same,inhibition of growth at 0.4 ppm,"[2]; Alternaria alternata, single compound, 0.4 ppm, read-out: Efficacy",0%
same,inhibition of growth at 2 ppm,"[2]; Alternaria alternata, single compound, 2 ppm, read-out: Efficacy",32%
same,inhibition of growth at 0.08 ppm,"[3]; Parastagonospora nodorum, 0.08 ppm, read-out: Efficacy",12%
same,inhibition of growth at 0.4 ppm,"[3]; Parastagonospora nodorum, 0.4 ppm, read-out: Efficacy",5%
same,inhibition of growth at 2 ppm,"[3]; Parastagonospora nodorum, 2 ppm, read-out: Efficacy",96%
same,Efficacy,"[4]; Table F13, 0.4 ppm alone",13%
same,inhibition of growth at 0.8 ppm,[12]; 0.8 ppm,12%
same,inhibition of growth at 4 ppm,[12]; 4.0 ppm,100%
same,inhibition of growth at 20 ppm,[12]; 20.0 ppm,99%
same,inhibition of growth at 0.08 ppm,"[6]; Fusarium culmorum, single active compound, 0.08 ppm, read-out: Efficacy",4%
same,inhibition of growth at 0.8 ppm,"[13]; Colletotrichum lindemuthianum, single active at 0.8 ppm, read-out: Efficacy %",0%
same,inhibition of growth at 4 ppm,"[13]; Colletotrichum lindemuthianum, single active at 4.0 ppm, read-out: Efficacy %",100%
same,inhibition of growth at 20 ppm,"[13]; Colletotrichum lindemuthianum, single active at 20.0 ppm, read-out: Efficacy %",100%
same,Efficacy %,[13]; single active at 0.8 ppm,0%
same,inhibition of growth at 0.8 ppm,[14]; read-out: Efficacy,0%
same,inhibition of growth at 4 ppm,"[14]; 4.0 ppm, read-out: Efficacy",23%
same,inhibition of growth at 20 ppm,[14]; read-out: Efficacy,100%
same,inhibition of growth at 0.8 ppm,"[14]; alone, read-out: Efficacy %",0%
same,inhibition of growth at 20 ppm,"[14]; alone, read-out: Efficacy %",99%
same,inhibition of growth at 0.8 ppm,[15]; 0.8 ppm,0%
same,inhibition of growth at 4 ppm,[15]; 4.0 ppm alone,100%
same,inhibition of growth at 4 ppm,[15]; 4.0 ppm,100%
same,inhibition of growth at 20 ppm,[15]; 20.0 ppm alone,99%
same,inhibition of growth at 20 ppm,[15]; 20.0 ppm,99%
same,inhibition of growth at 0.08 ppm,"[7]; Cercospora beticola, 0.08 ppm, read-out: Efficacy %",0%
same,inhibition of growth at 0.4 ppm,"[7]; Cercospora beticola, 0.4 ppm, read-out: Efficacy %",3%
same,inhibition of growth at 2 ppm,"[7]; Cercospora beticola, 2 ppm, read-out: Efficacy %",100%
same,inhibition of growth at 0.08 ppm,"[8]; Colletotrichum coccodes, single active compound at 0.08 ppm, read-out: Efficacy %",0%
same,inhibition of growth at 0.4 ppm,"[8]; Colletotrichum coccodes, single active compound at 0.4 ppm, read-out: Efficacy %",11%
same,inhibition of growth at 10 ppm,"[8]; Colletotrichum coccodes, single active compound at 10 ppm, read-out: Efficacy %",100%
same,inhibition of growth at 0.08 ppm,"[9]; 0.08 ppm, read-out: Efficacy %",2%
same,inhibition of growth at 0.4 ppm,"[9]; 0.4 ppm, read-out: Efficacy %",0%
same,inhibition of growth at 2 ppm,"[9]; 2 ppm, read-out: Efficacy %",29%
same,inhibition of growth at 0.8 ppm,[16]; 0.8 ppm,0%
same,inhibition of growth at 4 ppm,[16]; 4.0 ppm,100%
"COCC(=O)N(c1c(C)cccc1C)[C@H](C)C(=O)OC [(12.004) metalaxyl-M, metalaxyl-M (mefenoxam)]",Efficacy,"[1]; single active, 0.8 ppm",0%
same,Efficacy,"[1]; single active, 4 ppm",0% and 9%
same,Efficacy,"[1]; single active, 20 ppm",0% and 8%
same,Efficacy,[2]; 4 ppm,10%
same,Efficacy,[3]; 0.8 ppm,12%
same,Efficacy,[3]; 4 ppm,8%
same,Efficacy,[3]; 20 ppm,3%
same,Efficacy,"[4]; Table F14, 0.8 ppm alone",0%
same,Efficacy,"[4]; Table F14, 4 ppm alone",0%
same,Efficacy,"[4]; Table F14, 20 ppm alone",0%
same,Efficacy %,"[5]; 0.8 ppm, alone",5%
same,Efficacy %,[5]; 4 ppm alone,3%
same,Efficacy %,[5]; 20 ppm alone,4%
same,Efficacy %,[5]; 100 ppm alone,13%
same,Efficacy,"[6]; 0.8 ppm, alone",0%
same,Efficacy,[6]; 4 ppm alone,0%
same,Efficacy,"[6]; single active compound, 100 ppm",22% and 23%
same,Efficacy %,[7]; 4 ppm,10%
same,Efficacy %,[7]; 20 ppm,0%
same,Efficacy %,"[7]; single compound, 20 ppm",0%
same,Efficacy %,"[9]; 0.8 ppm, listed as (12.004) metalaxyl-m",11%
same,Efficacy %,[9]; 4 ppm,8%
same,Efficacy %,[9]; 20 ppm,12%
